The values below are quoted from earlier work in US12600787B2, “Methods for the treatment of thyroid eye disease” (Horizon Therapeutics Ireland DAC, priority 2019, dated 2026).

Where two headings read alike, the source gives them in different places.

The conditions of data set [1]: cited from earlier work.
For the next data set, the system named is tumors. The conditions noted are these: in vivo; cited from earlier work.
The subject of data set [2] is susceptible tumor cell populations. The conditions noted are these: cited from earlier work.
Data set [3] deals with c-erbB2/HER2/neu receptor (Homo sapiens, UniProt P04626). The note with it: cited from earlier work.
The target in a further data set is IGF-1 R (Homo sapiens, UniProt P08069). The conditions noted are these: cited from earlier work.
Data set [4] relates to IGF-1 R-overexpressing tumor cells. The note with it: cited from earlier work.
The conditions of data set [5]: cited from earlier work. This is another data set of the same source.
Another data set concerns TED (GO). The conditions noted are these: cited from earlier work.
Data set [6] deals with moderate-to-severe active TED. The conditions noted are these: cited from earlier work.
For a further data set, the system named is neuroblastoma. The note with it: by overcoming crizotinib resistance and inducing apoptosis; cited from earlier work.
The target in another data set is ALK (Homo sapiens, UniProt Q9UM73). The note with it: cited from earlier work.
Data set [7] has as its system intracellular IGF-IR phosphorylation. The conditions noted are these: cited from earlier work.
A further data set addresses IGF-IR (purified enzyme) (Homo sapiens, UniProt P08069). The conditions noted are these: cited from earlier work.

IGF-1 R, sequence (P08069 31-1367): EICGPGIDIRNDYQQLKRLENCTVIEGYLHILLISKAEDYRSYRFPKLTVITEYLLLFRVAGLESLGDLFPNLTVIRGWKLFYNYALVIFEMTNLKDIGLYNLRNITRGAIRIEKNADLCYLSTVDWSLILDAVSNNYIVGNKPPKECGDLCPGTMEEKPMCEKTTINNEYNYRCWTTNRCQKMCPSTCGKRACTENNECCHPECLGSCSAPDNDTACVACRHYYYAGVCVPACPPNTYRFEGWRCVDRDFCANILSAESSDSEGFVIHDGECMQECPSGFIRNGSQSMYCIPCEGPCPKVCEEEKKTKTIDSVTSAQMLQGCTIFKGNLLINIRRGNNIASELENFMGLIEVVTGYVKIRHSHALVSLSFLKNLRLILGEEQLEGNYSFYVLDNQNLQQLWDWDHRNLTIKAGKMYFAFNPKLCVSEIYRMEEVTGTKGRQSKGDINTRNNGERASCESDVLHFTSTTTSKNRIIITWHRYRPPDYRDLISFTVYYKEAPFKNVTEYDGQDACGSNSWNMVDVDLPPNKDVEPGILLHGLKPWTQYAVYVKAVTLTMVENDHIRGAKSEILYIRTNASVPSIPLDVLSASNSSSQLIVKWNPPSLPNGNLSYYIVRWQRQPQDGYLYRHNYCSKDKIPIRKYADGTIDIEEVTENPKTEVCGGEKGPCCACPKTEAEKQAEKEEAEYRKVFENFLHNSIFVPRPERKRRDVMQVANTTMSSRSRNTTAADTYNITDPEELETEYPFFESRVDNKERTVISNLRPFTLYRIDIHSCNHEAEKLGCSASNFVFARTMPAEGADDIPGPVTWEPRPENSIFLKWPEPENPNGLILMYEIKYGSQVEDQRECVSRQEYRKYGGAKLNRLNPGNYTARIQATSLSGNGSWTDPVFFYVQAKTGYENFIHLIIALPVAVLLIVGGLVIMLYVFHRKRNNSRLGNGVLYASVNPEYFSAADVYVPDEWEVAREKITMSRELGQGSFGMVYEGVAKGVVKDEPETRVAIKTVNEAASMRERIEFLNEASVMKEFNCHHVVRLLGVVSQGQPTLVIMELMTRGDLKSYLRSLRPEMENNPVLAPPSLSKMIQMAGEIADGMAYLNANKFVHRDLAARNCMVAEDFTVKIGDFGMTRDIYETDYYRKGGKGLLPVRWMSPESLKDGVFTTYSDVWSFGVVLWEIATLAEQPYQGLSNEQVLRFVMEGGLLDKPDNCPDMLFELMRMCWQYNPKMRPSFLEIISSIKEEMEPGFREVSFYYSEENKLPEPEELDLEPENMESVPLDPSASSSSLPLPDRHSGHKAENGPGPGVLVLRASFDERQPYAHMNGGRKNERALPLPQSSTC
IGF-IR (purified enzyme), sequence (P08069 31-1367): as above
ALK, sequence (Q9UM73 19-1620, species assumed): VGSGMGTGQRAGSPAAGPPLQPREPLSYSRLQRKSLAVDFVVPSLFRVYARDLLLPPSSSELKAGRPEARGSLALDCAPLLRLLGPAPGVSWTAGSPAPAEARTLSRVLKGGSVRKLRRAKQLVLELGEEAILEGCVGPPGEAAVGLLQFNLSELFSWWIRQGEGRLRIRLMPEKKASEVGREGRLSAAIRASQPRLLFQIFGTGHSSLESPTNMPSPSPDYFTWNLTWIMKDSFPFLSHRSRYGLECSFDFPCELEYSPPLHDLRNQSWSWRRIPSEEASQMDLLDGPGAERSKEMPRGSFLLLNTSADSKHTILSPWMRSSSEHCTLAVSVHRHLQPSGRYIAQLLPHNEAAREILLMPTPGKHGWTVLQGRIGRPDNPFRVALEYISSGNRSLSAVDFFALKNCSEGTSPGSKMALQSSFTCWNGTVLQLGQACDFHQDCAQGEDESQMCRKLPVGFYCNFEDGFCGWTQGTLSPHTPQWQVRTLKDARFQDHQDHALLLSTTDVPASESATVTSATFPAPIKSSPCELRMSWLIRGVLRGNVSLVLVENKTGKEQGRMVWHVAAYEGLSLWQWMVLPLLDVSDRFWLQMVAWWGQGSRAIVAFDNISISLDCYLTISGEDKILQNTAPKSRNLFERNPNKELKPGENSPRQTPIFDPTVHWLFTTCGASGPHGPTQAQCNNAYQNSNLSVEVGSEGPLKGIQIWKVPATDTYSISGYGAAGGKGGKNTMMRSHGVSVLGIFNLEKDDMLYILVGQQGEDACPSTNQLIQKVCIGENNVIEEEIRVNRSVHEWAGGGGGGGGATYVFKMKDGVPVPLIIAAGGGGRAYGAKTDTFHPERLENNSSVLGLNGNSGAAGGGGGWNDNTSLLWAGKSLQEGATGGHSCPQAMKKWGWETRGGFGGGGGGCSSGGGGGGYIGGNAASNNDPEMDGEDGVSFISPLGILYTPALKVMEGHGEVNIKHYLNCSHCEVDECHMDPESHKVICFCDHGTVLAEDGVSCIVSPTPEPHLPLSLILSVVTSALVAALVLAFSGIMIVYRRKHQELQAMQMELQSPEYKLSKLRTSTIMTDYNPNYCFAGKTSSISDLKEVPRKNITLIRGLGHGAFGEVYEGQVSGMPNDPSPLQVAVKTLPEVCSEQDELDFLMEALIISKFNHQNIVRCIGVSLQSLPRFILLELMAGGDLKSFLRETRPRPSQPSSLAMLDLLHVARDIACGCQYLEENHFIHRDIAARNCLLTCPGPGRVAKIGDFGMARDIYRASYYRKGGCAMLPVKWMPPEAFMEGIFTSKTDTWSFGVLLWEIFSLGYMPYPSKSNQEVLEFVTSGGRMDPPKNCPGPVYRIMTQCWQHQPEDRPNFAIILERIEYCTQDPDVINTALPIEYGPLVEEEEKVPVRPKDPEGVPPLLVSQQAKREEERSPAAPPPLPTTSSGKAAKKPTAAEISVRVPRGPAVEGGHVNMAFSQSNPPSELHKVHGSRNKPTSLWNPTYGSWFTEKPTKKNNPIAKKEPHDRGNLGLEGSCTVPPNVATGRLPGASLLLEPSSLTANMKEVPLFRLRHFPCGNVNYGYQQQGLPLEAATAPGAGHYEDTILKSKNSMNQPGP
c-erbB2/HER2/neu receptor, sequence (P04626 23-1255): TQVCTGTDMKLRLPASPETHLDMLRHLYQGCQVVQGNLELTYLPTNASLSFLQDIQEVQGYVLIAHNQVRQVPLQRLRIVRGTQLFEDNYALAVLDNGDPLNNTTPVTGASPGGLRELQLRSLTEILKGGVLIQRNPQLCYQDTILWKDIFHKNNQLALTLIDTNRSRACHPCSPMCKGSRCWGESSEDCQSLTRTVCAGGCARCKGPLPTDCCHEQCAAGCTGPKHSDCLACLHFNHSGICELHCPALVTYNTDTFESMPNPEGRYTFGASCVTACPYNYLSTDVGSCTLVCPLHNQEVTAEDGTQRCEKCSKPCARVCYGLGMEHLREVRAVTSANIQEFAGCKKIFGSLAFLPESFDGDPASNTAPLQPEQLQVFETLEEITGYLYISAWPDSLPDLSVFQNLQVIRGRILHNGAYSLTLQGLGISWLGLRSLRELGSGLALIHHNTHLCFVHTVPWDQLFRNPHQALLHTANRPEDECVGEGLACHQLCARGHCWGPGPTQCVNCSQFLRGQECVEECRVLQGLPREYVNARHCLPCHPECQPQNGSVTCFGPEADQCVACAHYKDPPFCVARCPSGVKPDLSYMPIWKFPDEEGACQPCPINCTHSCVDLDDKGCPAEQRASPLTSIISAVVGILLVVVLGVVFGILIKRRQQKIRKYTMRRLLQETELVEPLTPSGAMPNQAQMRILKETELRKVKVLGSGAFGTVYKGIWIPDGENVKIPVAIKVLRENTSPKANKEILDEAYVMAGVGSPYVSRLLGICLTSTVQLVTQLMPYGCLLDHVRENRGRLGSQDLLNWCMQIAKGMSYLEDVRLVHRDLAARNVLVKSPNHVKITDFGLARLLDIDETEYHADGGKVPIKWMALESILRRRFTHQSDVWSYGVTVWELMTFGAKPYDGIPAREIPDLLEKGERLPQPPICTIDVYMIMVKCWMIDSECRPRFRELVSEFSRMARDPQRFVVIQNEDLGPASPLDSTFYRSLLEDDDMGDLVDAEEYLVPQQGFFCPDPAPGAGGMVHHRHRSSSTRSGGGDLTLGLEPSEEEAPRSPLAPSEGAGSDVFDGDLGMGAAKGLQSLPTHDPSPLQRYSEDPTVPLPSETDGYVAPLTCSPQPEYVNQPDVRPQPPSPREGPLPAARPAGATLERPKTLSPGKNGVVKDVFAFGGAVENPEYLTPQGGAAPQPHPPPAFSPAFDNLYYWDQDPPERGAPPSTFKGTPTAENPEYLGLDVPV

On to `COCCN1CCN(CCn2ccc(Nc3ncc4c(n3)[C@@H](C)Cc3nn(C)c(-c5ccccc5)c3-4)n2)CC1` [BI885578], for which, in data set [1], the in vivo half-life result is on record as “short in vivo half-life”. Also, in data set [1] (in vivo), the intestinal absorption entry is “rapid intestinal absorption” and the metabolic clearance entry was “rapid metabolic clearance”. For the same molecule, in the data set with tumors, the “cell proliferation and apoptosis in tumors” value was “inhibition of cell proliferation and induction of apoptosis in tumors”.
Consider `C[C@H](Cc1ccc(O)c(O)c1)[C@@H](C)Cc1ccc(O)c(O)c1` [INSM-18, nordihydroguaiaretic acid], for which the “proliferation of tumor cells” value in data set [2] is recorded as “decreased proliferation”. Moreover, in data set [3], the “inhibition of activation of c-erbB2/HER2/neu receptor” value was “directly inhibits activation”. For the same molecule, the IGF-1R inhibition result on IGF-1 R was “directly inhibits activation”.
With `CCOC(=O)N1CCC(Nc2cc(Cl)cc3c(S(=O)(=O)N4CCO[C@H](COc5ccccc5)C4)c(C(N)=O)[nH]c23)CC1` [PL-225B], in [4], the tumor cell apoptosis entry was “induction of tumor cell apoptosis” and the tumor cell proliferation entry is “inhibition of tumor cell proliferation”. For the same molecule, the T1/2 entry in data set [5] (oral) is recorded as “Oral; 21d”. For the same molecule, the IGF-1R inhibition entry at IGF-1 R was “selectively inhibits”.
Consider “teprotumumab: fully human IGF-IR-inhibitory monoclonal antibody approved for the treatment of TED”, for which the “efficacy in the treatment of TED” value in the data set with TED (GO) (in vivo) is listed as “effective”. Also, the “average decrease in exophthalmos” value in the data set on TED (GO) (vs. 0.15 mm in the placebo group) is listed as 2.46 mm. Also, the T1/2 entry in data set [5] (IV) is “IV; 8 days”.
Turning to “rituximab: a CD20+ B cell-depleting agent”, the “trial result versus placebo” value in data set [6] (first monocenter RCT, 2015) is recorded as “negative (no differences with placebo)”. The “reduction in proptosis compared with ivGCs” value in [6] (results using rituximab versus ivGC RCT) is on record as “not different”. Further, in data set [6] (second monocenter RCT, 2015), the “trial result versus ivGCs” value is “positive (beneficial effects comparable to ivGCs)”.
For `C[C@]1(O)C[C@@H](c2nc(-c3ccc4ccc(-c5ccccc5)nc4c3)c3c(N)nccn32)C1` [Linsitinib], in [5] (oral), the T1/2 entry is reported as “oral; 2-4 hrs”.
Regarding `COc1cc(N2CCC(N)CC2)ccc1Nc1ncc(Cl)c(-c2c[nH]c3ccccc23)n1` [AZD3463], the neuroblastoma growth entry with neuroblastoma is listed as “inhibition of neuroblastoma growth”. The IGF-1R inhibition result on IGF-1 R is “potent ALK/IGF-1 R inhibitor”. The ALK inhibition result at ALK was “potent ALK/IGF-1 R inhibitor”.
Take “Dalotuzumab: IGF-1R inhibitor antibody, HC SEQ ID NO:7, LC SEQ ID NO:8”: the T1/2 result in data set [5] (in vivo) is “IV; 5 days”.
With “Cixutumumab: IGF-1R inhibitor antibody, HC SEQ ID NO:55, LC SEQ ID NO:56”, in data set [5] (IV), the T1/2 entry was “IV; 5 days”.
Regarding `Nc1ncnc2c1c(-c1ccc3[nH]c(Cc4ccccc4Cl)nc3c1)nn2[C@H]1CC[C@H](N2CCOCC2)CC1` [Example A-928605], the “inhibition of IGF-IR phosphorylation” value in [7] was “potent inhibitor”. For the same molecule, the “inhibition of IGF-IR” value on IGF-IR (purified enzyme) is given as “potent inhibitor”.

B1: Figitumumab: IGF-1R inhibitor antibody, HC SEQ ID NO:39, LC SEQ ID NO:40 (antibody)
heavy: EVQLLESGGGLVQPGGSLRLSCTASGFTFSSYAMNWVRQAPGKGLEWVSAISGSGGTTFYADSVKGRFTISRDNSRTTLYLQMNSLRAEDTAVYYCAKDLGWSDSYYYYYGMDVWGQGTTVTVSSASTKGPSVFPLAPCSRSTSESTAALGCLVKDYFPEPVTVSWNSGALTSGVHTFPAVLQSSGLYSLSSVVTVPSSNFGTQTYTCNVDHKPSNTKVDKTVERKCCVECPPCPAPPVAGPSVFLFPPKPKDTLMISRTPEVTCVVVDVSHEDPEVQFNWYVDGVEVHNAKTKPREEQFNSTFRVVSVLTVVHQDWLNGKEYKCKVSNKGLPAPIEKTISKTKGQPREPQVYTLPPSREEMTKNQVSLTCLVKGFYPSDIAVEWESNGQPENNYKTTPPMLDSDGSFFLYSKLTVDKSRWQQGNVFSCSVMHEALHNHYTQKSLSLSPGK
light: DIQMTQFPSSLSASVGDRVTITCRASQGIRNDLGWYQQKPGKAPKRLIYAASRLHRGVPSRFSGSGSGTEFTLTISSLQPEDFATYYCLQHNSYPCSFGQGTKLEIKRTVAAPSVFIFPPSDEQLKSGTASVVCLLNNFYPREAKVQWKVDNALQSGNSQESVTEQDSKDSTYSLSSTLTLSKADYEKHKVYACEVTHQGLSSPVTKSFNRGEC
modifications: Heavy Chain of Figitumumab; Light Chain of Figitumumab
Turning to B1, the T1/2 result in data set [5] (IV) is given as “IV; 20 days”.
